In patent publication US20160158200A1, “Combinations of Hepatitis C Virus Inhibitors” (priority 2013, published 2016):

System: HCV genotype-1a variant with glutamine 30 changed to glutamate in the NS5A protein
Format: cell-based
Settings: test compound titrated with BMS-790052 fixed at 200 nM; genotype 1a Q30E replicon
In short: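 Synergy was assessed by combining several fixed amounts of an NS5A-targeting compound with a titration of the second compound of interest.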

Compound	Fold-Synergistic 1a (Q30E)
CC(C)[C@H](NC(=O)C(C)(C)OCC(F)F)c1nc(-c2ccc(-c3ccc(-c4c[nH]c([C@@H](NC(=O)C(C)(C)OCC(F)F)C(C)C)n4)cc3F)cc2)c[nH]1.O=C(O)C(F)(F)F [Compound N-98]	>100 fold
CC(C)[C@H](N[S@@+]([O-])C(C)(C)C)c1ncc(-c2ccc(-c3ccc(-c4cnc([C@@H](N[S@+]([O-])C(C)(C)C)C(C)C)[nH]4)cc3)cc2)[nH]1 [Compound Y-60]	>100 fold
CC(C)[C@H](NC(=O)c1ccc(C#N)s1)c1ncc(-c2ccc(-c3ccc(-c4cnc([C@@H](NC(=O)c5ccc(C#N)s5)C(C)C)[nH]4)cc3)cc2)[nH]1 [Compound P-101]	>100 fold
CC(C)(C)C(NC(=O)CC1CCOC2(CC2)C1)c1nc(-c2ccc(-c3ccc(-c4c[nH]c(C(NC(=O)CC5CCOC6(CC6)C5)C(C)(C)C)n4)cc3)cc2)c[nH]1 (mixture of isomers) [Compound L-75]	>100 fold
CC(C)[C@H](NC(=O)C1CCC(F)(F)CC1)c1nc2ccc(C#CC#Cc3ccc4nc([C@@H](NC(=O)C5CCC(F)(F)CC5)C(C)C)[nH]c4c3)cc2[nH]1 [Compound B52]	>100 fold
CC(C)COC(=O)N[C@@H](C(=O)N[C@H](c1ncc(-c2ccc(-c3ccc(-c4cnc([C@@H](NC(=O)[C@H](NC(=O)OCC(C)C)C(C)C)C(C)C)[nH]4)cc3)cc2)[nH]1)C(C)C)C(C)C [Compound S-246]	>100 fold
CC(C)(C)[C@H](NCC1CCCCC1)c1nc(-c2ccc(-c3ccc(-c4c[nH]c([C@@H](NCC5CCCCC5)C(C)(C)C)n4)cc3)cc2)c[nH]1.O=C(O)C(F)(F)F [Compound L-2]	>100 fold
CC1(C(=O)N[C@H](c2nc(-c3ccc(-c4ccc(-c5c[nH]c([C@@H](NC(=O)C6(C)CCCCC6)C(C)(C)C)n5)cc4)cc3)c[nH]2)C(C)(C)C)CCCCC1 [Compound P-47]	>100 fold
CC(C)(C)[C@H](NC(=O)C(C)(C)N1CCOCC1)c1nc(-c2ccc(-c3ccc(-c4c[nH]c([C@@H](NC(=O)C(C)(C)N5CCOCC5)C(C)(C)C)n4)cc3)cc2)c[nH]1 [Compound Q-7]	>100 fold
C[C@@H]1CN(C(=O)C(=O)N[C@H](c2nc(-c3ccc(-c4ccc(-c5c[nH]c([C@@H](NC(=O)C(=O)N6C[C@@H](C)O[C@@H](C)C6)C(C)(C)C)n5)cc4)cc3)c[nH]2)C(C)(C)C)C[C@H](C)O1 [Compound W-45]	>100 fold
CC(C)C(NC(=O)C1(N2CCC(F)(F)CC2)COC1)c1nc(-c2ccc(-c3ccc(-c4c[nH]c(C(NC(=O)C5(N6CCC(F)(F)CC6)COC5)C(C)C)n4)cc3)cc2)c[nH]1 (stereo not drawn) [Compound W-64]	>100 fold
CC(C)[C@H](NC(=O)[C@@H]1CCCCO1)c1ncc(-c2ccc(-c3ccc(-c4cnc([C@@H](NC(=O)[C@H]5CCCCO5)C(C)C)[nH]4)cc3)cc2)[nH]1 [Compound Y-56]	>100 fold
COC(=O)NC(C(=O)NC(c1ncc(-c2ccc(-c3ccc(-c4cnc(C5CCCN5C(=O)C(NC(=O)OC)C(C)C)[nH]4)cc3)cc2)[nH]1)C(C)(C)C)C(C)C (stereo not drawn) [Compound B-196]	>10 fold
CC1(C(=O)NC(c2nc(-c3ccc(-c4ccc(-c5c[nH]c(C(NC(=O)C6(C)CCCOC6)C(C)(C)C)n5)cc4)cc3)c[nH]2)C(C)(C)C)CCCOC1 (mixture of isomers) [Compound Y-100]	>100 fold
CC(C)(C)COC(=O)N1CCC[C@H]1c1ncc(-c2ccc(-c3ccc(-c4cnc([C@@H]5CCCN5C(=O)OCC(C)(C)C)[nH]4)cc3)cc2)[nH]1 [Compound S-221]	>10 fold
CC(C)(C)[C@H](NC(=O)C1CC2CCC(C1)C2(F)F)c1nc(-c2ccc(-c3ccc(-c4c[nH]c([C@@H](NC(=O)C5CC6CCC(C5)C6(F)F)C(C)(C)C)n4)cc3)cc2)c[nH]1 (stereo partly drawn) [Compound P-45]	>100 fold
CC(C)(C)[C@H](NC(=O)[C@]1(C)C[C@@H](F)CN1)c1nc(-c2ccc(-c3ccc(-c4c[nH]c([C@@H](NC(=O)[C@]5(C)C[C@@H](F)CN5)C(C)(C)C)n4)cc3)cc2)c[nH]1 [Compound W-209]	>100 fold
CC(C)[C@H](NC(=O)C1(C(C)O)CC1)c1ncc(-c2ccc(-c3ccc(-c4cnc([C@@H](NC(=O)C5(C(C)O)CC5)C(C)C)n4C)cc3)cc2)n1C (single isomer, unassigned) [Compound B-202]	>10 fold
CC(C)CC(=O)N[C@H](c1nc(-c2ccc(-c3ccc(-c4c[nH]c([C@@H](NC(=O)CC(C)C)C(C)(C)C)n4)cc3)cc2)c[nH]1)C(C)(C)C [Compound N-117]	>100 fold
CC(C)(C)OC(=O)N1CCC(F)(F)C[C@H]1C(=O)N[C@H](c1nc(-c2ccc(-c3ccc(-c4c[nH]c([C@@H](NC(=O)[C@@H]5CC(F)(F)CCN5C(=O)OC(C)(C)C)C(C)(C)C)n4)cc3)cc2)c[nH]1)C(C)(C)C [Compound L-21]	>100 fold

Compound	Fold-Synergistic 1a (Q30E)
COC(=O)N(C)C1(C(=O)N[C@H](c2nc(-c3ccc(-c4ccc(-c5c[nH]c([C@@H](NC(=O)C6(N(C)C(=O)OC)CC6)C6CC6)n5)cc4)cc3)c[nH]2)C2CC2)CC1 [Compound L-34]	>100 fold
CC(C)[C@H](NC(=O)CC1CC1)c1ncc(-c2ccc(-c3ccc(-c4cnc([C@@H](NC(=O)CC5CC5)C(C)C)[nH]4)cc3)cc2)[nH]1 [Compound S-50]	>10 fold
Cc1onc(-c2ccccc2)c1C(=O)N1CCC[C@H]1c1ncc(-c2ccc(-c3ccc(-c4cnc([C@@H]5CCCN5C(=O)c5c(-c6ccccc6)noc5C)[nH]4)cc3)cc2)[nH]1 [Compound S-118]	<10 fold
CC(C)[C@H](NC(=O)Cc1ccccc1Cl)c1ncc(-c2ccc(-c3ccc(-c4cnc([C@@H](NC(=O)Cc5ccccc5Cl)C(C)C)[nH]4)cc3)cc2)[nH]1 [Compound S-38]	>100 fold
CC(C)[C@H](NC(=O)[C@H](NC(=O)OC1CCCC1)C(C)C)c1ncc(-c2ccc(-c3ccc(-c4cnc([C@@H](NC(=O)[C@H](NC(=O)OC5CCCC5)C(C)C)C(C)C)[nH]4)cc3)cc2)[nH]1 [Compound S-251]	>100 fold
CC1([C@H](NC(=O)C2CCC(F)(F)CC2)c2ncc(-c3ccc(-c4ccc(-c5cnc([C@@H](NC(=O)C6CCC(F)(F)CC6)C6(C)CCC6)[nH]5)cc4)cc3)[nH]2)CCC1 [Compound Y-38]	>100 fold
CC(C)(C)[C@H](NC(=O)[C@@H]1CCC(=O)N1)c1nc(-c2ccc(-c3ccc(-c4c[nH]c([C@@H](NC(=O)[C@@H]5CCC(=O)N5)C(C)(C)C)n4)cc3)cc2)c[nH]1.O=C(O)C(F)(F)F.O=C(O)C(F)(F)F [Compound L-10]	>10 fold
CC(C)[C@H](NC(=O)Cc1noc2ccccc12)c1ncc(-c2ccc(-c3ccc(-c4cnc([C@@H](NC(=O)Cc5noc6ccccc56)C(C)C)[nH]4)cc3)cc2)[nH]1 [Compound P-77]	>100 fold
CC(C)(C)[C@H](NC(=O)C1(C(F)(F)F)CCC1)c1nc(-c2ccc(-c3ccc(-c4c[nH]c([C@@H](NC(=O)C5(C(F)(F)F)CCC5)C(C)(C)C)n4)cc3)cc2)c[nH]1 [Compound L-129]	>100 fold
COc1ccc(C(=O)N[C@H](c2ncc(-c3ccc(-c4ccc(-c5cnc([C@@H](NC(=O)c6ccc(OC)c(OC)c6)C(C)C)[nH]5)cc4)cc3)[nH]2)C(C)C)cc1OC [Compound S-78]	>100 fold
CC(C)[C@H](NC(=O)C1CCC(F)(F)CC1)c1ncc(-c2ccc3cc(-c4ccc5nc([C@@H](NC(=O)C6CCC(F)(F)CC6)C(C)C)[nH]c5c4)ccc3c2)[nH]1 [Compound B55]	>100 fold
COCC(C)(C)C(=O)N[C@H](c1ncc(-c2ccc(-c3ccc(-c4cnc([C@@H](NC(=O)C(C)(C)COC)C(C)C)[nH]4)cc3)cc2)[nH]1)C(C)C [Compound P-70]	>100 fold
CC(C)[C@H](NC(=O)C(C)(C)c1ccccc1)c1ncc(-c2ccc(-c3ccc(-c4cnc([C@@H](NC(=O)C(C)(C)c5ccccc5)C(C)C)[nH]4)cc3)cc2)[nH]1 [Compound S-47]	>100 fold
CC(C)[C@H](NC(=O)c1ccc(C#N)s1)c1ncc(-c2ccc(-c3ccc(-c4cnc([C@@H](NC(=O)c5ccc(C#N)s5)C(C)(C)C)[nH]4)cc3)cc2)[nH]1 [Compound Y-45]	>100 fold
CC(C)(C)OC(=O)N1CC(C)(C(=O)NC(c2nc(-c3ccc(-c4ccc(-c5c[nH]c(C(NC(=O)C6(C)CN(C(=O)OC(C)(C)C)C6)C(C)(C)C)n5)cc4)cc3)c[nH]2)C(C)(C)C)C1 [Compound L-63]	>100 fold
CC(C)(C)[C@H](NC(=O)C1(NC(=O)CC2CC2)CCCCC1)c1nc(-c2ccc(-c3ccc(-c4c[nH]c([C@@H](NC(=O)C5(NC(=O)CC6CC6)CCCCC5)C(C)(C)C)n4)cc3)cc2)c[nH]1 [Compound W-276]	>100 fold
CC(C)[C@H](NC(=O)C1CCCCO1)c1ncc(-c2ccc(-c3ccc(-c4cnc([C@@H](NC(=O)C5CCCCO5)C(C)C)[nH]4)cc3)cc2)[nH]1 (single isomer, unassigned) [Compound Y-55]	>10 fold
CC1(C(=O)N[C@H](c2ncc(-c3ccc(-c4ccc(-c5cnc([C@@H](NC(=O)C6(C)CCCCC6O)C(C)(C)C)[nH]5)cc4)cc3)[nH]2)C(C)(C)C)CCCCC1O (stereo partly drawn) [Compound Y-97]	>100 fold
Cc1cc(-c2ccc(-c3c[nH]c([C@@H](NC(=O)c4ccc(Cl)s4)C(C)C)n3)cc2)ccc1-c1c[nH]c([C@@H](NC(=O)c2ccc(Cl)s2)C(C)C)n1.O=C(O)C(F)(F)F [Compound N-83]	>100 fold
